Measured values as given in publication PMC5071873, “The Effects of Puerarin on Rat Ventricular Myocytes and the Potential Mechanism” (Scientific Reports, 2016).
pIC50: −log10 of the molar value. Where two headings read alike, the source gives them in different places.

Target: T1, Kv7.1 (Homo sapiens, UniProt P51787)
T1 construct: expressed in transfected cells; host or cells: HEK293
Test: Whole-cell patch clamp of Kv7.1 currents (voltage steps) in transfected HEK293 cells
Assay type: cell-based
Settings: for pIC50: HEK293, non-linear Hill fit, n = 6 each point; for Kv7.1-tail current density / Kv7.1 current density: at 40 mV; for Kv7.1-tail current density: control 10.4 ± 0.6; for Kv7.1 current density: control 24.3 ± 1.1
Protocol: The Tyrode’s solution contained (mM): 126 NaCl, 5.4 KCl, 1.8 CaCl2, 1 MgCl2, 0.33 NaH2PO4, 10 HEPES and 10 glucose, pH 7.4 (adjusted with NaOH). The Ca^2+-free Tyrode’s solution was prepared by removing CaCl2 from the Tyrode’s solution. The Kreb’s solution used for cell storage contained (mM): 70 glutamic acid, 30 KCl, 15 taurine, 0.5 MgCl2, 10 KH2PO4, 0.5 EGTA, 10 HEPES, 10 glucose, and 1% albumin, pH 7.4 (adjusted with KOH). The enzyme solution used for the rat cardiomyocyte isolation contained 0.08 g/L collagenase (type II) and 1.0 g/L BSA in Kreb’s solution. For action potential recording on cardiomyocyte, the pipette solution contained (mM): 100 potassium aspartate, 30 KCl, 1 MgCl2, 5 Mg-ATP, 5 EGTA, 5 HEPES, pH 7.3 (adjusted with KOH); the Tyrode’s solution was used as the standard bath solution. For whole-cell recording of IKs on myocytes, the pipette solution contained (mM): 125 potassium aspartate, 20 KCl, 1 MgCl2, 5 Mg-ATP, 10 EGTA, 5 HEPES, pH 7.3 (adjusted with KOH); the bath solution contained (mM): 132 NaCl, 4 KCl, 1.8 CaCl2, 1.2 MgCl2, 10 HEPES, 5 glucose, pH 7.4 (adjusted with NaOH). 3 μM nifedipine and 5 μM E-4031 were used to block the calcium current and IKr, respectively. For whole-cell recording on HEK-293 cells, the pipette solution contained (mM): 140 KCl, 2 MgCl2, 10 HEPES, 0.1 EGTA, 4 K2-ATP, pH 7.3 (adjusted with KOH); the bath solution contained (mM): 120 NaCl, 5 KCl, 1.5 CaCl2, 1 MgCl2, 10 HEPES, 10 glucose, pH 7.4 (adjusted with NaOH). For single-channel recording, the pipette solution (extracellular) contained (mM): 145 KCl, 10 HEPES, 10 glucose, pH 7.4 (adjusted with KOH); the bath solution (intracellular) contained (mM): 145 KCl, 1.2 MgCl2, 10 HEPES, 0.1 EGTA, pH 7.38 (adjusted with KOH).
Cell suspensions were transferred into a chamber on the stage of a Nikon Eclipse Ti inverted microscope (Tokyo, Japan). The whole-cell recordings were performed using isolated single ventricular myocytes. Patch electrodes were pulled from a horizontal microelectrode puller (P-1000, Sutter Instrument Co, USA) and fire polished to final tip resistance of 4.0–8.0 MΩ when filled with internal solutions. Signals were amplified with an Axopatch 200B amplifier (Axon Instruments, USA) and filtered at 1 kHz. The pCLAMP 9.0 software was used to generate current and voltage clamp protocols, acquire data, and analyse the current traces. The whole-cell series resistance was compensated to more than 80%. All of the experiments were performed at room temperature (22 ± 1 °C). The whole-cell IK1 was elicited by a ramp voltage protocol from −140 to + 40 mV in 1 s, or at a 0 mV holding potential to test potentials from −140 to + 40 mV in 10 mV increments. The IK1 was calculated as the difference between the peak inward current and the holding current level. The whole-cell Kv7.1/IKs were elicited from a −30 mV holding potential to test potentials from −80 to + 40 mV in 10 mV increments.
Human Kir2.1 cDNA, Kir2.3 cDNA, Kv7.1 cDNA and KCNE1 cDNA, was cloned in Human Embryonic Kidney 293 cells, respectively. In some cases, Kv7.1 cDNA and KCNE1 cDNA were simultaneously cloned in Human Embryonic Kidney 293 cells.

## O=c1c(-c2ccc(O)cc2)coc2c([C@@H]3O[C@H](CO)[C@@H](O)[C@H](O)[C@H]3O)c(O)ccc12 [Puerarin, 8-c-glucoside of daidzein]
read-out: IC50, inhibition of Kv7.1 at the peak currents
  pIC50: 4.44
read-out: IC50, inhibition of Kv7.1 at the tail currents
  pIC50: 4.40
non-linear Hill fit
  Hill coefficient, inhibition of Kv7.1: 0.997
Puerarin 10 μM
  Kv7.1-tail current density: 8.8 ± 0.7 pA/pF
  Kv7.1 current density: 19.1 ± 1.0 pA/pF
Puerarin 100 μM
  effect on Kv7.1 current activated by isoproterenol, forskolin or 8-Br-cAMP: antagonized such activation effect
  Kv7.1-tail current density: 3.8 ± 0.6 pA/pF
  Kv7.1 current density: 7.9 ± 0.8 pA/pF
Puerarin 1 mM
  Kv7.1-tail current density: 2.5 ± 0.9 pA/pF
  Kv7.1 current density: 6.1 ± 0.4 pA/pF
Puerarin 10 mM
  Kv7.1-tail current density: 2.0 ± 0.5 pA/pF
  Kv7.1 current density: 4.8 ± 0.8 pA/pF
